Measured values taken from patent US20250171452A1 (Viscient Bio, Inc., priority 2022, published 2025).

Tests used:
[1] = molecular target: Indoleamine 2,3-dioxygenase 1 (IDO1) (Homo sapiens (Human), UniProt P14902); assay: Cellular IDO1 assay: kynurenine production in IFN-γ-stimulated HeLa cells, colorimetric
IDO2 = IDO2 (Homo sapiens (Human), UniProt Q6ZQW0); assay: Cellular IDO2 assay, doxycycline and 5-methoxy-L-tryptophan medium, colorimetric; type: cell-based; settings: cellular level, 72 h incubation, signal at 480 nm
Chain of IDO2 (Q6ZQW0 whole entry, species assumed): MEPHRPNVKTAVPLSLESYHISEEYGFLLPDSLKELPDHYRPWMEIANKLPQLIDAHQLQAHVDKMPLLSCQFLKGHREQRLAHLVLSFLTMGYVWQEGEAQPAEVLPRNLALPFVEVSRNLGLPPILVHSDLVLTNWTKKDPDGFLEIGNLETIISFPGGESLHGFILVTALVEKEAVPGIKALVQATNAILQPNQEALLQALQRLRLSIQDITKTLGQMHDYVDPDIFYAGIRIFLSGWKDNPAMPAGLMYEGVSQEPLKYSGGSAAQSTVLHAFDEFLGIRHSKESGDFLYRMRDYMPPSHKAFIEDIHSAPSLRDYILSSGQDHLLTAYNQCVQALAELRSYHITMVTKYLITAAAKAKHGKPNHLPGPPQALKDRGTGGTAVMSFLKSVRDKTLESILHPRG

Chain of Indoleamine 2,3-dioxygenase 1 (IDO1) (P14902 whole entry): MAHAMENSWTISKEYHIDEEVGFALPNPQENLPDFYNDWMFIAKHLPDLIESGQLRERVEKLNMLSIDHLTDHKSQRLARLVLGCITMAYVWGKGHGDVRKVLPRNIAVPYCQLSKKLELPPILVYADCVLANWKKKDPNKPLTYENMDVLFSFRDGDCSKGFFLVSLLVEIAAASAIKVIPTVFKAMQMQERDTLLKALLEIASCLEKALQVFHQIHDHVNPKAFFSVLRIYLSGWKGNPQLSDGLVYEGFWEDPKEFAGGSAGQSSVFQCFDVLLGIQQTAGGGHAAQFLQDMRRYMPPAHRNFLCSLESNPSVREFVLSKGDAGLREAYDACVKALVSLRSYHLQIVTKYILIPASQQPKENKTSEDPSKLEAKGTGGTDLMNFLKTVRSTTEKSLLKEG

IC50 [1]	IC50 (IDO2)	Molecule
50 to 500 nM	< 50 nM	Nc1ccc2c(=O)n3c(nc2c1)C(=O)c1cc([N+](=O)[O-])ccc1-3 [Compound 16, 3-Amino-8-nitroindolo[2,1-b]quinazoline-6,12-dione]
> 500 nM	> 500 nM	O=C(O)c1ccc2c(c1)C(=O)c1nc3cc(Cl)cc(Cl)c3c(=O)n1-2 [Compound 22, 1,3-Dichloro-6,12-dioxoindolo[2,1-b]quinazoline-8-carboxylic Acid]
> 500 nM	50 to 500 nM	O=C1c2cc([N+](=O)[O-])ccc2-n2c1nc1c(Br)c(Cl)ccc1c2=O [Compound 50, 4-Bromo-3-chloro-8-nitroindolo[2,1-b]quinazoline-6,12-dione]
50 to 500 nM	50 to 500 nM	CN(C)C(=O)c1ccc2c(c1)C(=O)c1nc3cc(Cl)cc(Cl)c3c(=O)n1-2 [Compound 24, 1,3-Dichloro-N,N-dimethyl-6,12-dioxo-6,12-dihydroindolo[2,1-b]quinazoline-8-carboxamide]
< 50 nM	< 50 nM	Cc1cccc2c(=O)n3c(nc12)C(=O)c1cc([N+](=O)[O-])ccc1-3 [Compound 42, 4-Methyl-8-nitroindolo[2,1-b]quinazoline-6,12-dione]
50 to 500 nM	50 to 500 nM	O=C1c2cc([N+](=O)[O-])ccc2-n2c1nc1c(Br)cc(F)cc1c2=O [Compound 45, 4-Bromo-2-fluoro-8-nitroindolo[2,1-b]quinazoline-6,12-dione]
> 500 nM	> 500 nM	NCCNC(=O)c1ccc2c(c1)C(=O)c1nc3cc(Cl)cc(Cl)c3c(=O)n1-2 [Compound 19, N-(2-Aminoethyl)-1,3-dichloro-6,12-dioxo-6,12-dihydroindolo[2,1-b]quinazoline-8-carboxamide]
< 50 nM	< 50 nM	O=C1c2cc([N+](=O)[O-])ccc2-n2c1nc1cc(F)ccc1c2=O [Compound 2, 3-Fluoro-8-nitroindolo[2,1-b]quinazoline-6,12-dione]
50 to 500 nM	< 50 nM	CS(=O)(=O)c1ccc2c(c1)C(=O)c1nc3cc(F)ccc3c(=O)n1-2 [Compound 14, 3-Fluoro-8-(methylsulfonyl)indolo[2,1-b]quinazoline-6,12-dione]
50 to 500 nM	50 to 500 nM	CC(=O)Nc1ccc2c(c1)C(=O)c1nc3cc(Cl)ccc3c(=O)n1-2 [Compound 7, N-(3-Chloro-6,12-dioxo-6,12-dihydroindolo[2,1-b]quinazolin-8-yl)acetamide]
50 to 500 nM	< 50 nM	CC(C)(C)OC(=O)Nc1ccc2c(=O)n3c(nc2c1)C(=O)c1cc([N+](=O)[O-])ccc1-3 [Compound 17, tert-Butyl (8-nitro-6,12-dioxo-6,12-dihydroindolo[2,1-b]quinazolin-3-yl)carbamate]
50 to 500 nM	50 to 500 nM	COC(=O)c1ccc2c(c1)C(=O)c1nc3cc(Cl)ccc3c(=O)n1-2 [Compound 6, Methyl 3-chloro-6,12-dioxo-6,12-dihydroindolo[2,1-b]quinazoline-8-carboxylate]
50 to 500 nM	< 50 nM	O=C1c2cc([N+](=O)[O-])ccc2-n2c1nc1c(Br)c(F)ccc1c2=O [Compound 35]
> 500 nM	50 to 500 nM	Nc1ccc2c(c1)C(=O)c1nc3cc(Cl)ccc3c(=O)n1-2 [Compound 5, 8-Amino-3-chloroindolo[2,1-b]quinazoline-6,12-dione]
> 500 nM	> 500 nM	NS(=O)(=O)NCCNC(=O)c1ccc2c(c1)C(=O)c1nc3cc(Cl)cc(Cl)c3c(=O)n1-2 [Compound 29, 1,3-Dichloro-6,12-dioxo-N-(2-(sulfamoylamino)ethyl)-6,12-dihydroindolo[2,1-b]quinazoline-8-carboxamide]
50 to 500 nM	50 to 500 nM	NC(=O)c1ccc2c(c1)C(=O)c1nc3cc(Cl)cc(Cl)c3c(=O)n1-2 [Compound 23, 1,3-Dichloro-6,12-dioxoindolo[2,1-b]quinazoline-8-carboxamide]
< 50 nM	< 50 nM	N#Cc1ccc2c(c1)C(=O)c1nc3cc(F)ccc3c(=O)n1-2 [Compound 12, 3-Fluoro-6,12-dioxo-6,12-dihydroindolo[2,1-b]quinazoline-8-carbonitrile]
< 50 nM	50 to 500 nM	Cc1ccc2c(=O)n3c(nc2c1)C(=O)c1cc([N+](=O)[O-])ccc1-3 [Compound 1, 3-Methyl-8-nitroindolo[2,1-b]quinazoline-6,12-dione]
> 500 nM	50 to 500 nM	O=C1c2cc([N+](=O)[O-])ccc2-n2c1nc1cnc(O)cc1c2=O [Compound 51, 3-Hydroxy-9-nitropyrido[3′,4′:4,5]pyrimido[1,2-a]indole-5,11-dione]
50 to 500 nM	< 50 nM	O=C1c2cc(SCc3ccccc3)ccc2-n2c1nc1cc(F)ccc1c2=O [Compound 28]
< 50 nM	< 50 nM	Cc1cccc2nc3n(c(=O)c12)-c1ccc([N+](=O)[O-])cc1C3=O [Compound 38, 1-Methyl-8-nitroindolo[2,1-b]quinazoline-6,12-dione]
> 500 nM	50 to 500 nM	O=c1c2c(F)cc(F)cc2nc2n1-c1ccc([N+](=O)[O-])cc1C2 [Compound 34, 1,3-Difluoro-8-nitroindolo[2,1-b]quinazolin-12(6H)-one]
> 500 nM	50 to 500 nM	CC(C)(C)OC(=O)N1CCN(C(=O)c2ccc3c(c2)C(=O)c2nc4cc(Cl)cc(Cl)c4c(=O)n2-3)CC1 [Compound 26, tert-Butyl 4-(1,3-dichloro-6,12-dioxo-6,12-dihydroindolo[2,1-b]quinazoline-8-carbonyl)piperazine-1-carboxylate]
50 to 500 nM	< 50 nM	O=C1c2cc(F)ccc2-n2c1nc1c(Br)cccc1c2=O [Compound 44, 4-Bromo-8-fluoroindolo[2,1-b]quinazoline-6,12-dione]

IC50 [1]	IC50 (IDO2)	Molecule
> 500 nM	50 to 500 nM	O=C1c2cc(Br)ccc2-n2c1nc1cc(F)ccc1c2=O [Compound 18, 8-Bromo-3-fluoroindolo[2,1-b]quinazoline-6,12-dione]
> 500 nM	50 to 500 nM	NCCNC(=O)c1ccc2c(c1)C(=O)c1nc3cc(Cl)ccc3c(=O)n1-2 [Compound 10, N-(2-Aminoethyl)-3-chloro-6,12-dioxo-6,12-dihydroindolo[2,1-b]quinazoline-8-carboxamide]
< 50 nM	< 50 nM	O=C1c2cc(S(=O)(=O)Cc3ccccc3)ccc2-n2c1nc1cc(F)ccc1c2=O [Compound 33, 8-(Benzylsulfonyl)-3-fluoroindolo[2,1-b]quinazoline-6,12-dione]
50 to 500 nM	< 50 nM	N#Cc1ccc2c(c1)C(O)C1Nc3cc(F)ccc3C(=O)N21 (centres unmarked) [Compound 31, 3-Fluoro-6-hydroxy-12-oxo-5,5a,6,12-tetrahydroindolo[2,1-b]quinazoline-8-carbonitrile]
–	< 50 nM	CC(=O)NCc1ccc2c(=O)n3c(nc2c1)C(=O)c1cc(F)ccc1-3 [Compound 100, N-((8-fluoro-6,12-dioxo-6,12-dihydroindolo[2,1-b]quinazolin-3-yl)methyl)acetamide]
–	< 50 nM	N#Cc1ccc2c(c1)C(=O)c1nc3c(Nc4ccc(F)cc4)cccc3c(=O)n1-2 [Compound 119, 4-((4-Fluorophenyl)amino)-6,12-dioxo-6,12-dihydroindolo[2,1-b]quinazoline-8-carbonitrile]
–	< 50 nM	O=C1c2cc(F)ccc2-n2c1nc1cc(NCc3ccc(F)cc3)ccc1c2=O [Compound 81]
–	< 50 nM	N=C(N)c1ccc2nc3n(c(=O)c2c1)-c1ccc(F)cc1C3=O [Compound 148, 8-fluoro-6,12-dioxo-6,12-dihydroindolo[2,1-b]quinazoline-2-carboximidamide]
–	50 to 500 nM	NS(=O)(=O)c1ccc2c(c1)C(=O)c1nc3cc(Cl)ccc3c(=O)n1-2 [Compound 75]
–	50 to 500 nM	O=C1c2cc(F)ccc2-n2c1nc1c(NCc3ccc(F)cc3)cccc1c2=O [Compound 115, 8-Fluoro-4-((4-fluorobenzyl)amino)indolo[2,1-b]quinazoline-6,12-dione]
–	50 to 500 nM	N#Cc1ccc2c(c1)C(=O)c1nc3cc(F)cc(F)c3c(=O)n1-2 [Compound 114]
–	50 to 500 nM	O=C1c2cc([N+](=O)[O-])ccc2-n2c1nc1ccc(F)c(F)c1c2=O [Compound 108]
–	< 50 nM	NC(=O)NCc1ccc2nc3n(c(=O)c2c1)-c1ccc(F)cc1C3=O [Compound 139, 1-((8-fluoro-6,12-dioxo-6,12-dihydroindolo[2,1-b]quinazolin-2-yl)methyl)urea]
–	< 50 nM	[N-]=[N+]=Nc1ccc2c(c1)C(=O)c1nc3cc(Cl)ccc3c(=O)n1-2 [Compound 66]
–	< 50 nM	CN(C)Cc1ccc2nc3n(c(=O)c2c1)-c1ccc(Br)cc1C3=O [Compound 128]
–	< 50 nM	[2H]C([2H])(Nc1ccc2c(=O)n3c(nc2c1)C(=O)c1cc(C#N)ccc1-3)c1ccc(F)cc1 [Compound 70]
–	< 50 nM	N#Cc1ccc2c(c1)C(=O)c1nc3c(Oc4ccc(F)cc4)cccc3c(=O)n1-2 [Compound 71]
–	50 to 500 nM	NCCNC(=O)c1ccc2c(c1)/C(=N\O)c1nc3cc(Cl)ccc3c(=O)n1-2 [Compound 68]
–	50 to 500 nM	NC(=O)c1ccc2c(c1)Cc1nc3cc(F)ccc3c(=O)n1-2 [Compound 80]
–	< 50 nM	O=C1c2cc(F)ccc2-n2c1nc1cc(Nc3ccc(F)cc3)ccc1c2=O [Compound 83]
–	> 500 nM	CC1(O)c2cc(F)ccc2-n2c1nc1ccc(C#N)cc1c2=O (centres unmarked) [Compound 152, 8-fluoro-6-hydroxy-6-methyl-12-oxo-6,12-dihydroindolo[2,1-b]quinazoline-2-carbonitrile]
–	< 50 nM	N#Cc1ccc2c(c1)C(=O)c1nc3cc(Cl)cc(Cl)c3c(=O)n1-2 [Compound 113]
–	< 50 nM	CN(C)Cc1ccc2nc3n(c(=O)c2c1)-c1ccc(S(=O)(=O)Cc2ccccc2)cc1C3=O [Compound 127]
–	> 500 nM	CN(C)Cc1ccc2nc3n(c(=O)c2c1)-c1ccc(SCc2ccccc2)cc1C3=O [Compound 130]

Molecule	IC50 [1]	IC50 (IDO2)
3-bromo-8-nitroindolo[2,1-b]quinazoline-6,12-dione [Compound 65]	–	50 to 500 nM
